Test results reported in patent publication US20140323500A1, “NADPH OXIDASE 4 INHIBITORS AND USE THEREOF” (GENKYOTEX SA, priority 2011, published 2014).

Assays:
human Nox2 = biological target: T1, human Nox2 (Homo sapiens, UniProt P04839); assay: ROS production by membranes expressing human Nox2, cell-free Amplex Red assay; format: biochemical; conditions: cell-free membranes, Amplex Red; Cheng-Prusoff; average of at least three experiments in triplicate; read-out: Ki hNox2
T1 construct: host or cells: T-REx-CHO (hNOX2 T-REx-CHO), tetracycline-induced; membrane fraction
T1 sequence (P04839 2-570 limits assumed): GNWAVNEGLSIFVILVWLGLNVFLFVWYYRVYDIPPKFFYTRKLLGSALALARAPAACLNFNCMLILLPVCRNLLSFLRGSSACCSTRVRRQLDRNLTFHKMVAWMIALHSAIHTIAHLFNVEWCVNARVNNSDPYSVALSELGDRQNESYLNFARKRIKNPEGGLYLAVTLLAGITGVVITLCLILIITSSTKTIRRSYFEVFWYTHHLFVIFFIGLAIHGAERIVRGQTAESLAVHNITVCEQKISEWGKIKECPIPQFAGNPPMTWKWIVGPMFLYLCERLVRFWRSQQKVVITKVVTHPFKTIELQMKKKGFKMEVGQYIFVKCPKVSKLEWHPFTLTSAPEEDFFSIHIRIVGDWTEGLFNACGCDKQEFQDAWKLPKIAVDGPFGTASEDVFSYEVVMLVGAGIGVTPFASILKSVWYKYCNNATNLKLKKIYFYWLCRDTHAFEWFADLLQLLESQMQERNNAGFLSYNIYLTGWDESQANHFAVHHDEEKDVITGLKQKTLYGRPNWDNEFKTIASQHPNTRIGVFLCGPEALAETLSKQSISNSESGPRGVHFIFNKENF
T1 sequence (P13498 2-195 partner limits assumed): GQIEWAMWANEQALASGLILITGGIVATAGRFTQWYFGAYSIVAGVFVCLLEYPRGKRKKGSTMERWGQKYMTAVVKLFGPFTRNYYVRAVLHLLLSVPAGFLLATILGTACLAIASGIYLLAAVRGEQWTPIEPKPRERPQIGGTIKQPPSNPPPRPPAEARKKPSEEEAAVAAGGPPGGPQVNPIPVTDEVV
Source text: (§1) The Nox4 activity of Nox4 inhibitors according to the invention may be tested for their activity in the inhibition or reduction of formation of reactive oxygen species (ROS) from oxygen in cell free assays. In order to fully characterise Nox4 inhibitors, Nox subunit-specific cell-free, membrane-based systems have been developed and specific recombinant proteins have been added to membranes heterologously over-expressing their specific iso form. Nox enzymes produce superoxide (O2.−) as primary product, however due to the high instability and reactivity of this molecule which dismutates naturally into hydrogen peroxide (H2O2), therefore, read-out techniques involving probes that do measure H2O2 were used (e.g. using Amplex Red as a probe in order to facilitate consistent and accurate measurements). The activity of the compounds is tested in the following cell free assay using the techniques described here below:
Human Nox1 (NM_007052.4), human NOX2 (NM_000397), and human NOX5 (NM_0245052244) cDNAs were cloned into the pcDNA5/TO (Invitrogen). Human p22 (NM_000101.2) was cloned into pcDNA3.1/Zeo (+) (Invitrogen), and human NOXA1 (AY255769.1) and human NOXO1 (AB097667) were cloned into the bi-cistronic pVITRO1-neo-mcs plasmid (Invivogen).
Cells were transfected by using the FuGENE 6 method. Cells stably expressing functional human Nox1 (hNOX1 T-REx™-CHO) were obtained by co-transfecting T-REx™-CHO cells with human Nox1, human p22, human NOXA1 and human NOXO1. Cells stably expressing functional human Nox2 (hNOX2 T-REx™-CHO) were obtained by co-transfecting T-REx™-CHO cells with human nox2, human p22 and human cofactors. Cells stably expressing functional human Nox5 (hNOX5 T-REx™-CHO) were obtained by transfecting T-REx™-CHO cells with human Nox5. Co-transfected cells were selected with the appropriate antibiotics for 10 days. For the selection, hygromycin and G418 were used at 2 mg/ml and zeocin at 0.1 mg/ml. For the establishment of each stably transfected cell line, a pool of antibiotic-resistant cells was generated. Cells were cloned by limiting dilution. Several clones were established and investigated for ROS production upon tetracycline-induced hNox expression using a cellular AR assay. The expression of NOXes was done with tetracycline (1 μg/ml) during 24 h prior to the assay.
(§2) Human Nox1, Nox2, Nox4, and Nox5 expression were induced with Tetracycline (1 μg/ml) during 24 h prior to the membrane preparation Membranes from transfected cells overexpressing Nox1, Nox2, Nox4 or Nox5 were prepared as previously described in Palicz et al., 2001, J. Biol. Chem., 76, 3090-3097. After resuspension in sonication buffer (11% sucrose, 120 mM NaCl, 1 mM EGTA in PBS, pH 7.4 for Nox4- or NOX5-expressing cells) or in relax buffer (10 mM Pipes, 3 mM NaCl, 3.5 mM MgCl2, 0.1M KCl, pH 7.4), cells were broken by sonication and centrifuged (200 g, 10 min). The supernatant was layered onto a 17/40% (w/v) discontinuous sucrose gradient and centrifuged (150,000×g for 60 min). Membrane fractions were collected from the 17/40% interface and were stored at −80° C. Protein concentration was determined with the Bradford reagent.
(§3) Reactive Oxygen Species (ROS) production by membranes expressing either human Nox1, or human Nox2 or human Nox4 or human Nox5 or by xanthine/xanthine oxidase were measured using the Amplex Red (AR) method following a slightly modified version of the manufacturer's instruction manual (Invitrogen). Briefly, membranes or xanthine were incubated in PBS with Amplex Red, Horse Radish Peroxidase (HRP) and appropriated co-factors. ROS production was induced by addition of NADPH to NOX-expressing membrane or by addition of xanthine to xanthine oxidase. Non-specific signal was measured in the absence of membranes or in the absence of xanthine.
Antagonist activity of compounds was measured in the presence of increasing concentrations ranging from 1 nM to 100 μM. […]

human Nox4 = biological target: T2, human Nox4 (Homo sapiens, UniProt Q9NPH5); assay: ROS production by membranes expressing human Nox4, cell-free Amplex Red assay; format: biochemical; conditions: cell-free membranes, Amplex Red; Cheng-Prusoff; average of at least three experiments in triplicate; read-out: Ki hNox4
T2 construct: expressed in transfected cells; host or cells: T-REx-293 (hNOX4 T-REx-293), tetracycline-induced; membrane fraction
T2 sequence (Q9NPH5 1-578): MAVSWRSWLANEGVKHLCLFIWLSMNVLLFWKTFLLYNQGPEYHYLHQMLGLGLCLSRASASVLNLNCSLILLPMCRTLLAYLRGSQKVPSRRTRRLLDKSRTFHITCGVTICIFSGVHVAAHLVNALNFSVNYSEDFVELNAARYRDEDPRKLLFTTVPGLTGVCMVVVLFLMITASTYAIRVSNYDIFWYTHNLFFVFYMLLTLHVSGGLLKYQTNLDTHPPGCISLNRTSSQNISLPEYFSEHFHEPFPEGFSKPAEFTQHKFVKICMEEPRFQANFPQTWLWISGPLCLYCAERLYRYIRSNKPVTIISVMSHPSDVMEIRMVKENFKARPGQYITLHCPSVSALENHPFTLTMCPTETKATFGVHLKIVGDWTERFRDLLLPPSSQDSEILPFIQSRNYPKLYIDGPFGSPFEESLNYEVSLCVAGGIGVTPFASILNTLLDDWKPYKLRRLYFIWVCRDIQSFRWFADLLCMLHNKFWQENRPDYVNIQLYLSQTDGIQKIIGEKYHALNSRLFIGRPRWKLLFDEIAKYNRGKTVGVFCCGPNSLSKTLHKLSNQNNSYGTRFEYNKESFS
T2 sequence (P13498 2-195 partner limits assumed): T1 sequence (P13498 2-195 partner limits assumed)
Source text: as §1
Transfected T-REx™-CHO cells (R718-07) purchased from Invitrogen and T-REx™-293 cell line expressing hNOX4 (hNOX4 T-REx™-293) (Serrander et al., 2007, Biochem. J., 406, 105-114) were cultured in […]. Both media were supplemented with 10% FBS, 2 mM glutamine, penicillin (100 U/ml) and streptomycin (100 μg/ml). Selection pressure was maintained by continuous inclusion of blasticidin (5 μg/ml), and/or G418 (0.25 mg/ml), and/or Hygromycin (0.25 mg/ml) and/or zeocin (0.025 mg/ml).
as §2, §3
Antagonist activity of compounds was measured in the presence of increasing concentrations ranging from 1 nM to 100 μM. After an incubation of 20 min in a plate shaker and incubator (Titramax 1000, VWR) at 37° C. with weak agitation (300 rpm), ROS levels were measured for 10 min in a BMG Fluostar microplate reader with excitation and emission wavelengths of 544 nm and 590 nm respectively.
Data were analysed using Prism (GraphPad Software Inc., San Diego, Calif.). Ki values were calculated using the Cheng-Prusoff equation and represent the average of at least three individual experiments performed in triplicate (Table 1). Nox4 inhibition was compared to that measured for Simvastatin (Enzo Life Sciences, CAS Number 79902-63-9) using the method described in Example 1. Reactive Oxygen Species (ROS) production by membranes expressing human Nox4 was measured using the Amplex Red (AR).

Compound | Ki (human Nox2) [nM] | Ki (human Nox4) [nM]
COc1ccc(-c2c3c(=O)n(-c4ccccc4Cl)[nH]c3cc(=O)n2Cc2ccn(C)n2)c(F)c1 [(4), 2-(2-chlorophenyl)-4-(2-fluoro-4-methoxyphenyl)-5-[(1-methyl-1H-pyrazol-3-yl)methyl]-1H-pyrazolo[4,3-c]pyridine-3,6(2H,5H)-dione] | 813 | 61
COc1ccc(F)c(-c2c3c(=O)n(-c4ccccc4OC)[nH]c3cc(=O)n2Cc2cccnc2)c1 [(5), 4-(2-fluoro-5-methoxyphenyl)-2-(2-methoxyphenyl)-5-(pyridin-3-ylmethyl)-1H-pyrazolo[4,3-c]pyridine-3,6(2H,5H)-dione] | 730 | 63
COc1cc(Cn2c(C)c3c(=O)n(-c4ccccc4Cl)[nH]c3cc2=O)ccn1 [(6), 2-(2-chlorophenyl)-5-[(2-methoxypyridin-4-yl)methyl]-4-methyl-1H-pyrazolo[4,3-c]pyridine-3,6(2H,5H)-dione] | 715 | 69
COc1ccccc1-n1[nH]c2cc(=O)n(Cc3cccnc3)c(C)c2c1=O [(7), 2-(2-methoxyphenyl)-4-methyl-5-(pyridin-3-ylmethyl)-1H-pyrazolo[4,3-c]pyridine-3,6(2H,5H)-dione] | 1170 | 72
COc1ccccc1-n1[nH]c2cc(=O)n(Cc3cccnc3)c(-c3ccc(Cl)cc3F)c2c1=O [(8), 4-(4-chloro-2-fluorophenyl)-2-(2-methoxyphenyl)-5-(pyridin-3-ylmethyl)-1H-pyrazolo[4,3-c]pyridine-3,6(2H,5H)-dione] | 750 | 73
O=c1c2c(-c3cc(Cl)ccc3F)n(Cc3cccnc3)c(=O)cc2[nH]n1-c1ccccc1Cl [(9), 4-(5-chloro-2-fluorophenyl)-2-(2-chlorophenyl)-5-(pyridin-3-ylmethyl)-1H-pyrazolo[4,3-c]pyridine-3,6(2H,5H)-dione] | 650 | 74

The next lines start with the values.

Ki (human Nox2) [nM] | Ki (human Nox4) [nM] | Compound
700 | 74 | COc1ccc(Cn2c(C)c3c(=O)n(-c4ccccc4Cl)[nH]c3cc2=O)cn1 [(10), 2-(2-chlorophenyl)-5-[(6-methoxypyridin-3-yl)methyl]-4-methyl-1H-pyrazolo[4,3-c]pyridine-3,6(2H,5H)-dione]
563 | 75 | O=c1c2c(-c3ccc(Cl)cc3F)n(Cc3cccnc3)c(=O)cc2[nH]n1-c1ccccc1Cl [(11), 4-(4-chloro-2-fluorophenyl)-2-(2-chlorophenyl)-5-(pyridin-3-ylmethyl)-1H-pyrazolo[4,3-c]pyridine-3,6(2H,5H)-dione]
985 | 80 | COc1ccc(F)c(-c2c3c(=O)n(-c4ccccc4OC)[nH]c3cc(=O)n2Cc2ccn(C)n2)c1 [(13), 4-(2-fluoro-5-methoxyphenyl)-2-(2-methoxyphenyl)-5-[(1-methyl-1H-pyrazol-3-yl)methyl]-1H-pyrazolo[4,3-c]pyridine-3,6(2H,5H)-dione]
695 | 81 | COc1ccccc1-n1[nH]c2cc(=O)n(Cc3cccnc3)c(-c3cc(Cl)ccc3F)c2c1=O [(14), 4-(5-chloro-2-fluorophenyl)-2-(2-methoxyphenyl)-5-(pyridin-3-ylmethyl)-1H-pyrazolo[4,3-c]pyridine-3,6(2H,5H)-dione]
907 | 83 | Cc1c2c(=O)n(-c3ccccc3Cl)[nH]c2cc(=O)n1Cc1cccnc1 [(15), 2-(2-chlorophenyl)-4-methyl-5-(pyridin-3-ylmethyl)-1H-pyrazolo[4,3-c]pyridine-3,6(2H,5H)-dione]
720 | 85 | O=c1c2c(-c3ccc(Cl)cc3)n(Cc3cnccn3)c(=O)cc2[nH]n1-c1ccccc1Cl [(16), 2-(2-chlorophenyl)-4-(4-chlorophenyl)-5-(pyrazin-2-ylmethyl)-1H-pyrazolo[4,3-c]pyridine-3,6(2H,5H)-dione]
602 | 88 | O=c1c2c(-c3ccccc3F)n(Cc3cccnc3)c(=O)cc2[nH]n1-c1ccccc1Cl [(17), 2-(2-chlorophenyl)-4-(2-fluorophenyl)-5-(pyridin-3-ylmethyl)-1H-pyrazolo[4,3-c]pyridine-3,6(2H,5H)-dione]
